Values quoted from earlier work, collected in patent publication US20240342244A1, “Isthmin Protein Therapeutics for the Treatment of Non-Alcoholic Fatty Liver Disease” (The Board of Trustees of the Leland Stanford Junior …, priority 2021, published 2024).

Test system: NAFLD mice
Settings: daily injections at 30 mg/kg; after 14 days; cited from earlier work

CC(C)c1onc(-c2c(Cl)cccc2Cl)c1COc1ccc(/C=C/c2cccc(C(=O)O)c2)c(Cl)c1 [GW4064]
hepatic steatosis (previously shown): significantly reduce hepatic steatosis
